Source: ChEMBL document CHEMBL5291721, “A preclinical secondary pharmacology resource illuminates target-adverse drug reaction associations of marketed drugs” (Nat Commun, 2023)

What was measured:
[1] = target: Glucagon receptor (Homo sapiens, UniProt P47871)
[2] = target: T1, Gastric inhibitory polypeptide receptor (Homo sapiens, UniProt P48546)
T1 sequence (P48546 whole entry): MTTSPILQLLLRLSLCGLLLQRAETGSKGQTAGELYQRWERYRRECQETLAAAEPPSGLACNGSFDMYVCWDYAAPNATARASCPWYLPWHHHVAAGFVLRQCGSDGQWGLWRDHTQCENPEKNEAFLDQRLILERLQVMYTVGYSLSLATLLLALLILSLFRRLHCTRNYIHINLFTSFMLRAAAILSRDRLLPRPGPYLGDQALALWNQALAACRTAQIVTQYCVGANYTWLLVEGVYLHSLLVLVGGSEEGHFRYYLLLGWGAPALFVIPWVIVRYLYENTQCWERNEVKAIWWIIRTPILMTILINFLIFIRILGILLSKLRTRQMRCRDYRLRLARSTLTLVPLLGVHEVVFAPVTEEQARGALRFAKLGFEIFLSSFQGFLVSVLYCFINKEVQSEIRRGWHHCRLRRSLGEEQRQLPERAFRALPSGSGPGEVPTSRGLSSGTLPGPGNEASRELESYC

[3] = target: Cannabinoid receptor 1 (Homo sapiens, UniProt P21554)
[4] = target: Voltage-dependent L-type calcium channel subunit alpha-1C (Rattus norvegicus, UniProt P22002); type: functional
Sequence of Voltage-dependent L-type calcium channel subunit alpha-1C (P22002 whole entry): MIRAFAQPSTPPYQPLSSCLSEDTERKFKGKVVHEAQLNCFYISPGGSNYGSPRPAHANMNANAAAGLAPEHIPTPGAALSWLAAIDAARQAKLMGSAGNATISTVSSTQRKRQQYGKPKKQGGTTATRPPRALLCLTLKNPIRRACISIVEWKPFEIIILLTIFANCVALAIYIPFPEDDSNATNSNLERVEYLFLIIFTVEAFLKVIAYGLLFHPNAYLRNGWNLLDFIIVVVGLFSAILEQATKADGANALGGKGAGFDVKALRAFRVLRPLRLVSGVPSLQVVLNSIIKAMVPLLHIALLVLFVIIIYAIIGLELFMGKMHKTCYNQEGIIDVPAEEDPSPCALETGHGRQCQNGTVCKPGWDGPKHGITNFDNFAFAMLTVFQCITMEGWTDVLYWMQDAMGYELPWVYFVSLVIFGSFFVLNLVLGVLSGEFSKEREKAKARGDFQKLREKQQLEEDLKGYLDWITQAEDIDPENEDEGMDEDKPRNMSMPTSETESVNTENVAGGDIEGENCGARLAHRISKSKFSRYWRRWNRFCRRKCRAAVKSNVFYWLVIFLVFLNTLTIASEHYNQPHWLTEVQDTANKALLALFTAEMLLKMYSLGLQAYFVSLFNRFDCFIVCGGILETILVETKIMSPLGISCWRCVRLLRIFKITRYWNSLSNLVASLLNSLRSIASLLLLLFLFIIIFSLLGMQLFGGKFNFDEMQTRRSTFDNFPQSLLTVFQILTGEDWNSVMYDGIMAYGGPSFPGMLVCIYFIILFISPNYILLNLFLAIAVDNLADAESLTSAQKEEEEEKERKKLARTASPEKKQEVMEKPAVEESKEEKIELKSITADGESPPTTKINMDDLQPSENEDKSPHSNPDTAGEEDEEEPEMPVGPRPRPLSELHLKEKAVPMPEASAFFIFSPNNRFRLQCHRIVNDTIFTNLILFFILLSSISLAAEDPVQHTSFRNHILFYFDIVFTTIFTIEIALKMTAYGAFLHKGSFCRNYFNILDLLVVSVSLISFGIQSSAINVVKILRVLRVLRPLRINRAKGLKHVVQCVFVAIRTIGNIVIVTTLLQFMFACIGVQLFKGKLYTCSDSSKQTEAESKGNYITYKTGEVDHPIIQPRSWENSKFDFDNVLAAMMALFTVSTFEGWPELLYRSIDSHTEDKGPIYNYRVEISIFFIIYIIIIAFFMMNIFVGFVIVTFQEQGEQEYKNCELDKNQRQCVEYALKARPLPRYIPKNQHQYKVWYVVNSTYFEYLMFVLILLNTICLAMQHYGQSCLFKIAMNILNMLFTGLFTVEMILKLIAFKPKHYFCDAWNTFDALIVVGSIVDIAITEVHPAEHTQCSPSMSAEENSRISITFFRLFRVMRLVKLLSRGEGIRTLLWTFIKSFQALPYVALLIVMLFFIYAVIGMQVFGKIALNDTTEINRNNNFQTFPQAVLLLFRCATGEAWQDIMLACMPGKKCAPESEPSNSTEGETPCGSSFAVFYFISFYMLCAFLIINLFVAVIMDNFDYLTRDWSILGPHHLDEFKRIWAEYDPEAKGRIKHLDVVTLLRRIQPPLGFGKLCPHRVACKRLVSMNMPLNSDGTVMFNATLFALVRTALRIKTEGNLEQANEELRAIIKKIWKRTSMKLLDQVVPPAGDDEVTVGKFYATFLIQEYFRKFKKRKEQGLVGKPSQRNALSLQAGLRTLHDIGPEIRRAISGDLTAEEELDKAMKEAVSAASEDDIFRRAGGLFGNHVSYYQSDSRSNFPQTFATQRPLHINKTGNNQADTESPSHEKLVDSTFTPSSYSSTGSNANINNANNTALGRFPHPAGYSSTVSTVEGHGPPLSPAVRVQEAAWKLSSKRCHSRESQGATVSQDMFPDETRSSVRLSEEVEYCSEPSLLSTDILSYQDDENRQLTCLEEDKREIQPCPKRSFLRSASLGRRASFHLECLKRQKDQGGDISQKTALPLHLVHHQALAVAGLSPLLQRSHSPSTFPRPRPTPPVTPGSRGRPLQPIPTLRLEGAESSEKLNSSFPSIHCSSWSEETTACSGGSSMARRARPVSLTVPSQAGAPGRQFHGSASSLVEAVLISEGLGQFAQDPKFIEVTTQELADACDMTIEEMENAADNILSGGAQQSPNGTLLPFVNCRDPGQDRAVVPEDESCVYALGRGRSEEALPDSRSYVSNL

[5] = target: T2, Progesterone receptor (Homo sapiens, UniProt P06401)
T2 sequence (P06401 whole entry): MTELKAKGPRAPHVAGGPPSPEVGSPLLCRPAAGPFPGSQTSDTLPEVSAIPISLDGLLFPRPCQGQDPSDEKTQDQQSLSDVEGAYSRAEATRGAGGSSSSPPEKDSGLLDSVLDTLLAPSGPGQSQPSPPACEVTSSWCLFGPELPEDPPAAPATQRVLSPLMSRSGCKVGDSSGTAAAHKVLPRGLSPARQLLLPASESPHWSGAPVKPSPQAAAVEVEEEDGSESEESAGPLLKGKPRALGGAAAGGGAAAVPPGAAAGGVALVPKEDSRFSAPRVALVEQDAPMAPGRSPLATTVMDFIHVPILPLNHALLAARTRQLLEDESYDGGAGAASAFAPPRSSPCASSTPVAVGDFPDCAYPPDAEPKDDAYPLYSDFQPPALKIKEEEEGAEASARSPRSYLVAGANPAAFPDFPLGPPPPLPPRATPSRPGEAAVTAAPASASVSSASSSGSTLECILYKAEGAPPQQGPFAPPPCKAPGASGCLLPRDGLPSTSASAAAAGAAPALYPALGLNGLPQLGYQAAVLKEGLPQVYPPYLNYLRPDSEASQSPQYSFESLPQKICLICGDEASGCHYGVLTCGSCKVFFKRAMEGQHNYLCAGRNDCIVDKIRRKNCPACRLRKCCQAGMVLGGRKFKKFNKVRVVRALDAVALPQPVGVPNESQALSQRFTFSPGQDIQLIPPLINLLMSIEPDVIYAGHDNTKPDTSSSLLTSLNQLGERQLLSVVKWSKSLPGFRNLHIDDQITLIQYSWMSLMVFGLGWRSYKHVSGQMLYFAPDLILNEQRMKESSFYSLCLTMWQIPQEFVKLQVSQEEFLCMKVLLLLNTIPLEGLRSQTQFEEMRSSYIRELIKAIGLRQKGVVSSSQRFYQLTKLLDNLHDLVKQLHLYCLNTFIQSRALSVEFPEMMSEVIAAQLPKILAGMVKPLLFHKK

[6] = target: T3, Corticotropin-releasing factor receptor 2 (Homo sapiens, UniProt Q13324)
T3 sequence (Q13324 whole entry): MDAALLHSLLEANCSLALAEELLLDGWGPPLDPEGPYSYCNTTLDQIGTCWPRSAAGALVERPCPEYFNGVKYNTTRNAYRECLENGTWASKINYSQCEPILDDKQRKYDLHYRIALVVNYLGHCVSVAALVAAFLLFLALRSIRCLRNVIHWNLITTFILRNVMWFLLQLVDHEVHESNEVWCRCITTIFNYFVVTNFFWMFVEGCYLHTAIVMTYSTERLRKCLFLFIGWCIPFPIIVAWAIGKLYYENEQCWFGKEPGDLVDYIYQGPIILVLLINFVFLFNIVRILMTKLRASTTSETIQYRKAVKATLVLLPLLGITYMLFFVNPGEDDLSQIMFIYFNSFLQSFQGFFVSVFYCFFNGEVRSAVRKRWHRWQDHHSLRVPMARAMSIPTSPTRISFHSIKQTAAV

[7] = target: Voltage-dependent N-type calcium channel subunit alpha-1B (Rattus norvegicus, UniProt Q02294); type: functional
Sequence of Voltage-dependent N-type calcium channel subunit alpha-1B (Q02294 whole entry): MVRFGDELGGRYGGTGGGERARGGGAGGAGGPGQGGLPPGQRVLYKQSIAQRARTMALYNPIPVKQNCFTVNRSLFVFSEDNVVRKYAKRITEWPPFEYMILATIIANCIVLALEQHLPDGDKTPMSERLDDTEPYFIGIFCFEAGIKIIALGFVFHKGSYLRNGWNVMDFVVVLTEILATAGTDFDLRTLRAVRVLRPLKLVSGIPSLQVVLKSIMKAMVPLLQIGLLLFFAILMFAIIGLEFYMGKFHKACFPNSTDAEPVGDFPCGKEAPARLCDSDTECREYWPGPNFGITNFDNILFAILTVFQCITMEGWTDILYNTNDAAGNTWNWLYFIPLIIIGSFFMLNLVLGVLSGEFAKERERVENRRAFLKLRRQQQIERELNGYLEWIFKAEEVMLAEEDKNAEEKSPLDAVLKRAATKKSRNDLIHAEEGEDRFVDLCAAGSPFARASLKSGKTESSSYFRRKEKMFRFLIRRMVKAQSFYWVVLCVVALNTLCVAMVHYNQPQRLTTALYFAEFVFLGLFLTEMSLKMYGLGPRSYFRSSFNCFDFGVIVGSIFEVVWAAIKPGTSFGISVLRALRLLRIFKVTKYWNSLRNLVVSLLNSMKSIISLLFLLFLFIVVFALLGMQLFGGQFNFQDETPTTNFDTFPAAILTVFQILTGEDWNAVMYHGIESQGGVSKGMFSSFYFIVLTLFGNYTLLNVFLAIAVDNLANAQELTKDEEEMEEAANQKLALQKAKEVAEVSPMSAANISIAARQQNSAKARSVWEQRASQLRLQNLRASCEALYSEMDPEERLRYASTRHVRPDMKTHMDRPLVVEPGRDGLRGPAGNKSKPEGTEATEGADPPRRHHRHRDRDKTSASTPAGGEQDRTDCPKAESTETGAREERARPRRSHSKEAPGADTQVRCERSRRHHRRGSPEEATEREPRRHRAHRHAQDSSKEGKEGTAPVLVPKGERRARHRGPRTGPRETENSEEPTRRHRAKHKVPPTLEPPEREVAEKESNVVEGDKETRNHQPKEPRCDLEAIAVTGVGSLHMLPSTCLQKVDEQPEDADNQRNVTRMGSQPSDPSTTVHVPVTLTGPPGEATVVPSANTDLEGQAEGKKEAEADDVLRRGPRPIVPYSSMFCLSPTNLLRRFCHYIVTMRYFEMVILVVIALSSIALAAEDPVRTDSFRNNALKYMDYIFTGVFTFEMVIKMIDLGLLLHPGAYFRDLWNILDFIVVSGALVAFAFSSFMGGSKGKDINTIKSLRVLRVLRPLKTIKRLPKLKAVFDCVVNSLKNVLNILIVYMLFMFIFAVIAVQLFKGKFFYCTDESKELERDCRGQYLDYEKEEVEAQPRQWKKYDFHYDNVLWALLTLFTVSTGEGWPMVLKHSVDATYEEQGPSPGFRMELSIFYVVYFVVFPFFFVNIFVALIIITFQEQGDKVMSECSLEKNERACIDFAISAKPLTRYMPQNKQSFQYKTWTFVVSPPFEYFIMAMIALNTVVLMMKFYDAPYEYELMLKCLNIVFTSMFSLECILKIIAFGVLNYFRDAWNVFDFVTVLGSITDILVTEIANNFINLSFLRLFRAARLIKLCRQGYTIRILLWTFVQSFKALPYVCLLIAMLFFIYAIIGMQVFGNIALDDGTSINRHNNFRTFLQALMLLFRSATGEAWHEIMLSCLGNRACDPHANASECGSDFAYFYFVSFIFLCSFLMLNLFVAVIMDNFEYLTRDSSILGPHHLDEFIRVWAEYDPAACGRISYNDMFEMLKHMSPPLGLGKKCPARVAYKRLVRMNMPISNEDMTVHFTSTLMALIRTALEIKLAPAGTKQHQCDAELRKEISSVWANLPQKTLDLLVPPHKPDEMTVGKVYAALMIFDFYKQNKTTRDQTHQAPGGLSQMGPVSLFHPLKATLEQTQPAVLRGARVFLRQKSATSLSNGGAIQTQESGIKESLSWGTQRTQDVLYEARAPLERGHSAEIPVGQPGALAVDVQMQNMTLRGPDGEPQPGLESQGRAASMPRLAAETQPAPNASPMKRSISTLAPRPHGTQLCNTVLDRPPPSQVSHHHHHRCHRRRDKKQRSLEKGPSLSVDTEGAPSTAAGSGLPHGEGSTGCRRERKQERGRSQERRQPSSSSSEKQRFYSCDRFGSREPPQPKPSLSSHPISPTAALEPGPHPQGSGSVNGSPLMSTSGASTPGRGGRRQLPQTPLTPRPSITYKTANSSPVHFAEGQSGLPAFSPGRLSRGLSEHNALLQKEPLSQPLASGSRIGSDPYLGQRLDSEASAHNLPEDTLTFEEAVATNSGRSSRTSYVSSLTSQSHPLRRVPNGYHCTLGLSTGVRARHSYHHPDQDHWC

[8] = target: T4, Corticotropin-releasing factor receptor 1 (Homo sapiens, UniProt P34998)
T4 sequence (P34998 whole entry): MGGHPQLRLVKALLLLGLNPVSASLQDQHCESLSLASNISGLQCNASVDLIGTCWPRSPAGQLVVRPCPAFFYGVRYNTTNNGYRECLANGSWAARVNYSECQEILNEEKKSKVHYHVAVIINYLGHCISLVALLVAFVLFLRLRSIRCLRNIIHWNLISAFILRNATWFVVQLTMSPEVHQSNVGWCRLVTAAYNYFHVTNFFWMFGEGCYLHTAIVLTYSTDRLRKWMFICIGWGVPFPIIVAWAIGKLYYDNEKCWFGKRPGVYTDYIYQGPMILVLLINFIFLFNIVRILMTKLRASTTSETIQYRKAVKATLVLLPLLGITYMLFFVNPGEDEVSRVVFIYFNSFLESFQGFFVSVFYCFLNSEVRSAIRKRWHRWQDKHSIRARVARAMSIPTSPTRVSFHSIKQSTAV

[9] = target: Muscarinic acetylcholine receptor M3 (Homo sapiens, UniProt P20309)
Sequence of Muscarinic acetylcholine receptor M3 (P20309 whole entry): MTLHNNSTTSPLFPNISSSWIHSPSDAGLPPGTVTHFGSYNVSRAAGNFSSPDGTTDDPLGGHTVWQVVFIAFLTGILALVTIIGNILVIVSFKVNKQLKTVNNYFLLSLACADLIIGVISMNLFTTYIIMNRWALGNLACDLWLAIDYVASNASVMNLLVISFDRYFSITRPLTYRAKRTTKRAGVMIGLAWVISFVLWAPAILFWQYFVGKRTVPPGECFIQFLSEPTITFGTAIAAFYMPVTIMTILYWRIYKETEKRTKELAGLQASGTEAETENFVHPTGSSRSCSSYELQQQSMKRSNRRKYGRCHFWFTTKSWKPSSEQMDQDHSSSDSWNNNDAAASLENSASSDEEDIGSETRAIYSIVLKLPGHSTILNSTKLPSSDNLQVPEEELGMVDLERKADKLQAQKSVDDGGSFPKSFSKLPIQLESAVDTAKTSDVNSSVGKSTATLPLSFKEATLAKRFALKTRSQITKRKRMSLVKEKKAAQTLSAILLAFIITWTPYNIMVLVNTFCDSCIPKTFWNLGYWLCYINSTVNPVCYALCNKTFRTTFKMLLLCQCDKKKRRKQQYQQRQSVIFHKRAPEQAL

[10] = target: Gamma-aminobutyric acid receptor subunit alpha-1/alpha-2/beta-2/gamma-2 (Homo sapiens, UniProt P14867+P18507+P47869+P47870); type: protein-complex assay
Further: assay procedure not described here.

## CCOc1nc2cccc(C(=O)O)c2n1Cc1ccc(-c2ccccc2-c2nnn[nH]2)cc1
[1]
  AC50: > 30 µM
[2]
  AC50: > 30 µM
[3]
  AC50: > 10 µM
[4]
  AC50: > 10 µM
[5]
  AC50: > 30 µM
[6]
  AC50: > 30 µM
[7]
  AC50: > 10 µM
[8]
  AC50: > 30 µM

## CCCc1nc2c(C)cc(-c3nc4ccccc4n3C)cc2n1Cc1ccc(-c2ccccc2C(=O)O)cc1
[1]
  AC50: > 30 µM
[2]
  AC50: > 30 µM
[9]
  AC50: > 30 µM
[3]
  AC50: > 30 µM
[4]
  AC50: > 30 µM
[5]
  AC50: > 30 µM
[6]
  AC50: > 30 µM
[7]
  AC50: > 10 µM
[8]
  AC50: > 30 µM

## CCCNC(=O)NS(=O)(=O)c1ccc(Cl)cc1 [CHLORPROPAMIDE]
[1]
  AC50: > 30 µM
[2]
  AC50: > 30 µM
[3]
  AC50: > 10 µM
[4]
  AC50: > 10 µM
[5]
  AC50: > 30 µM
[6]
  AC50: > 30 µM
[7]
  AC50: > 10 µM
[8]
  AC50: > 30 µM

## O=C(O)Cc1ccccc1Nc1c(Cl)cccc1Cl [DICLOFENAC]
[1]
  AC50: > 30 µM
[2]
  AC50: > 30 µM
[3]
  AC50: > 10 µM
[4]
  AC50: > 10 µM
[5]
  AC50: > 30 µM
[6]
  AC50: > 30 µM
[7]
  AC50: > 10 µM
[10]
  AC50: > 3 µM
[8]
  AC50: > 30 µM

## O=C(O)Cc1ccccc1Oc1ccc(Cl)cc1Cl [FENCLOFENAC]
[1]
  AC50: > 30 µM
[2]
  AC50: > 30 µM
[9]
  AC50: > 10 µM
[3]
  AC50: > 10 µM
[4]
  AC50: > 10 µM
[5]
  AC50: > 30 µM
[6]
  AC50: > 30 µM
[7]
  AC50: > 10 µM
[8]
  AC50: > 30 µM

## Cc1ccc(C)c(OCCCC(C)(C)C(=O)O)c1 [GEMFIBROZIL]
[1]
  AC50: > 30 µM
[2]
  AC50: > 30 µM
[3]
  AC50: > 10 µM
[4]
  AC50: > 10 µM
[5]
  AC50: > 30 µM
[6]
  AC50: > 30 µM
[7]
  AC50: > 10 µM
[8]
  AC50: > 30 µM

## CC[C@H](C)C(=O)O[C@H]1C[C@@H](C)C=C2C=C[C@H](C)[C@H](CC[C@@H]3C[C@@H](O)CC(=O)O3)[C@H]21 [LOVASTATIN]
[1]
  AC50: > 30 µM
[2]
  AC50: > 30 µM
[3]
  AC50: > 10 µM
[4]
  AC50: > 10 µM
[5]
  AC50: 29.7 µM
[6]
  AC50: > 30 µM
[7]
  AC50: > 10 µM
[8]
  AC50: > 30 µM

## CC[C@@H](CO)NC(=O)[C@@H]1C=C2c3cccc4c3c(cn4C)C[C@H]2N(C)C1 [METHYSERGIDE]
[1]
  AC50: > 30 µM
[2]
  AC50: > 30 µM
[3]
  AC50: > 10 µM
[4]
  AC50: > 10 µM
[5]
  AC50: 16 µM
[6]
  AC50: > 30 µM
[7]
  AC50: > 10 µM
[8]
  AC50: > 30 µM

## CC(CN1c2ccccc2Sc2ccccc21)N(C)C (stereo unspecified) [PROMETHAZINE]
[1]
  AC50: > 30 µM
[2]
  AC50: > 30 µM
[3]
  AC50: > 10 µM
[4]
  AC50: > 10 µM
[5]
  AC50: > 30 µM
[6]
  AC50: > 30 µM
[7]
  AC50: > 10 µM
[8]
  AC50: > 30 µM

## CN(CCOc1ccc(CC2SC(=O)NC2=O)cc1)c1ccccn1 (stereo unspecified) [ROSIGLITAZONE]
[1]
  AC50: > 30 µM
[2]
  AC50: > 30 µM
[3]
  AC50: 16 µM
[4]
  AC50: > 30 µM
[5]
  AC50: > 30 µM
[6]
  AC50: > 30 µM
[7]
  AC50: > 10 µM
[8]
  AC50: > 30 µM

## CC(C)[C@H](N)C(=O)OCCOCn1cnc2c(=O)[nH]c(N)nc21 [VALACYCLOVIR]
[1]
  AC50: > 30 µM
[2]
  AC50: > 30 µM
[3]
  AC50: > 10 µM
[4]
  AC50: > 10 µM
[5]
  AC50: > 30 µM
[6]
  AC50: > 30 µM
[7]
  AC50: > 10 µM
[8]
  AC50: > 30 µM

## O=C1Cc2cc(CCN3CCN(c4nsc5ccccc45)CC3)c(Cl)cc2N1 [ZIPRASIDONE]
[1]
  AC50: > 30 µM
[2]
  AC50: > 30 µM
[9]
  AC50: > 10 µM
[3]
  AC50: > 10 µM
[4]
  AC50: > 10 µM
[5]
  AC50: 21.8 µM
[6]
  AC50: > 30 µM
[7]
  AC50: > 10 µM
[10]
  AC50: > 30 µM
[8]
  AC50: > 30 µM
